{"source": "patent US12552753B2", "about": "“Methods and compositions for targeting Tregs using CCR8 inhibitors” (Nanjing Immunophage Biomedical Co., Ltd., priority 2020, dated 2026)", "note": "Where a name gives a salt, the structure may show the parent alone."}
{"target": "CCR8 (Homo sapiens, UniProt P51685)", "sequence (P51685 whole entry, the tested form may be a part)": "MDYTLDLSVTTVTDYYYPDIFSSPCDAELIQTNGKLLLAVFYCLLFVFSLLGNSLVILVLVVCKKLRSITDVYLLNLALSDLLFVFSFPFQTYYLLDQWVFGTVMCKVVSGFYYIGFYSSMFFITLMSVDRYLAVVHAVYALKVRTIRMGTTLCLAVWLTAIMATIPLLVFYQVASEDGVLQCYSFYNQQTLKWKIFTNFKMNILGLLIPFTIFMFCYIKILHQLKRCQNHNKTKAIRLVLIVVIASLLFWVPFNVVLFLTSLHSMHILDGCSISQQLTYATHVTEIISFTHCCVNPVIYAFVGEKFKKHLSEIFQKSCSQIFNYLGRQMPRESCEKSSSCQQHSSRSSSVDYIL", "experiment": "Tango assay (Tango-CCR8-Gal4-CHO-K1 cells, CCL1-stimulated, ONE-Glo luminescence)", "settings": "Tango Assay IC50, Inhibition of CCR8 Tango cell in vitro", "units": {"IC50": "µM"}, "protocol": "The Tango cell line was used to monitor antagonists-mediated receptor inactivation.\nTango cells (Tango-CCR8-Gal4-CHO-K1 cells constructed by Genomeditech) were passaged in complete medium (F12K, 10% FBS, 1% penicillin-streptomycin, 4 μg/ml puromycin, 4 μg/ml blasticidin and 100 μg/ml hygromycin) in incubator (37° C., 5% CO2).\nTwenty-four hours before the seed, cells were cultured in 10 or 15 cm dish at a density of 30% confluence in culture medium (F12K, 10% FBS, 1% penicillin-streptomycin).\nCells were suspended in starving medium (F12K, 1% FBS, 1% penicillin-streptomycin) before being seeded into black/clear 96 wells (1×10^4 cells/70 μl/well) and incubated for 6 hours (37° C., 5% CO2). Different concentration of compound, dissolved in DMSO, was into the 96-well plates, with 50 μl in each well, and incubation continued for 1 hour at 37° C.\nAfter the incubation, the medium was removed and the 96-well plate was put in −80° C. freezer for an hour or longer. The plate and the ONE-Glo reagent (Promega, Catalog Number: E6110) which was frozen in −80° C., were taken out and rewarmed to room temperature. The ONE-Glo working reagent was prepared by mixing ONE-Glo reagent with F12K (no FBS) (1:2), and 40 μl ONE-Glo working reagent was added into each well. After incubating for 10 minutes at room temperature, the plate was read using microplate luminescence reader at 560 nm.\nThe microplate reader records luminescence in relative luminescence units (RLU)."}
{"smiles": "COC(=O)CN1CCCC(C(C)NS(=O)(=O)c2ccc(NC(=O)c3ccccc3C)c3ccccc23)C1", "note": "(single isomer, unassigned) [Compound 19A, methyl 2-(3-(1-(4-(2-methylbenzamido)naph-thalene-1-sulfonamido)ethyl)piper-idin-1-yl)acetate]", "IC50": 2.8}
{"smiles": "Cc1ccccc1C(=O)Nc1ccc(S(=O)(=O)Nc2ccc3c(c2)N(C(=O)CN(C)C)CC3)c2ccccc12", "note": "[Compound 36, N-(4-(N-(1-(2-(dimethylamino)acetyl)indolin-6-yl)sulfamoyl)naphthalen-1-yl)-2-methylbenzamide]", "IC50": "> 10"}
{"smiles": "Cc1ccccc1C(=O)Nc1ccc(S(=O)(=O)NC2CCC(C(=O)N3CCN(C)CC3)CC2)c2ccccc12", "note": "(stereo not shown) [Compound 46, 2-methyl-N-(4-(N-(4-(4-methylpiperazine-1-carbonyl)cyclohexyl)sul-famoyl)naphthalen-1-yl)benzamide]", "IC50": "> 10"}
{"smiles": "Cc1cc(S(=O)(=O)NC(C)C2CCNCC2)ccc1NC(=O)c1ccccc1C", "note": "(stereo not shown) [Compound 167A, 2-methyl-N-(2-methyl-4-(N-(1-(piperidin-4-yl)ethyl)sulfamoyl)phen-yl)benzamide hydrochloride]", "IC50": 0.046}
{"smiles": "Cc1ccccc1C(=O)Nc1ccc(S(=O)(=O)Nc2ccc3c(c2)CN(CCCN(C)C)C3)c2ccccc12", "note": "[Compound 35, N-(4-(N-(2-(3-(dimethylamino)propyl)isoindolin-5-yl)sulfamoyl)naphthalen-1-yl)-2-methylbenzamide]", "IC50": "> 10"}
{"smiles": "Cc1ccccc1C(=O)Nc1cc(C)c(S(=O)(=O)N[C@H](C)C2CCNCC2)cc1F", "note": "[Compound 257, (R)-N-(2-fluoro-5-methyl-4-(N-(1-(piperidin-4-yl)ethyl)sulfamoyl)phenyl)-2-methylbenzamide hydrochloride]", "IC50": 0.015}
{"smiles": "Cc1ccccc1C(=O)Nc1ccc(S(=O)(=O)NC(C)C2CCCCN2C(=O)OC(C)(C)C)c2ccccc12", "note": "(single isomer, unassigned) [Compound 67, tert-butyl 2-(1-(4-(2-methylbenzamido)naph-thalene-1-sulfonamido)ethyl)piper-idine-1-carboxylate]", "IC50": 0.283}
{"smiles": "Cc1ccccc1C(=O)Nc1ccc(S(=O)(=O)NC2CCC(C(=O)N(C)C)CC2)c2ccccc12", "note": "(stereo not shown) [Compound 45, N-(4-(N-(4-(dimethylcarbamoyl)cy-clohexyl)sulfamoyl)naph-thalen-1-yl)-2-methylbenzamide]", "IC50": 2.7}
{"smiles": "CC(=O)N1CCCC(C(C)NS(=O)(=O)c2ccc(NC(=O)c3ccccc3C)c3ccccc23)C1", "note": "(single isomer, unassigned) [Compound 18B, N-(4-(N-(1-(1-acetylpiperidin-3-yl)ethyl)sulfamoyl)naph-thalen-1-yl)-2-methylbenzamide]", "IC50": 0.1}
{"smiles": "Cc1cc(S(=O)(=O)N[C@H](C)C2CCNCC2)ccc1NC(=O)c1ccccc1C(F)(F)F", "note": "[Compound 249A, (R)-N-(2-methyl-4-(N-(1-(piperidin-4-yl)ethyl)sulfamoyl)phenyl)-2-(trifluoromethyl) benzamide hydrochloride]", "IC50": 0.012}
{"smiles": "Cc1cc(S(=O)(=O)N[C@H](C)C2CCNCC2)ccc1NC(=O)C12CCC(CC1)CC2", "note": "[Compound 309, hydrochloride]", "IC50": 0.01}
{"smiles": "Cc1ccccc1C(=O)Nc1ccc(S(=O)(=O)N[C@H](C)C2CCN(C(=O)OC(C)(C)C)CC2)c(C(F)(F)F)c1", "note": "[Compound 188, (R)-tert-butyl 4-(1-(4-(2-methylbenzamido)-2-(trifluoromethyl)phenyl-sulfonamido)ethyl)piper-idine-1-carboxylate]", "IC50": 0.302}
{"smiles": "Cc1ccccc1C(=O)Nc1cc(F)c(S(=O)(=O)N[C@@H](C)C2CCNCC2)cc1Cl", "note": "[Compound 242B, (S)-N-(2-chloro-5-fluoro-4-(N-(1-(piperidin-4-yl)ethyl)sulfamoyl)phenyl)-2-methylbenzamide hydrochloride]", "IC50": "> 100"}
{"smiles": "CC(NS(=O)(=O)c1ccc2nc(Nc3ccccc3)[nH]c2c1)C1CCCCC1", "note": "(stereo not shown) [Compound 145, N-(1-cyclohexylethyl)-2-(phenylamino)-1H-benzo[d]imidazole-6-sulfonamide]", "IC50": 0.87}
{"smiles": "Cc1ccccc1C(=O)Nc1ccc(S(=O)(=O)N[C@H](C)C2CCNCC2)cc1F", "note": "[Compound 190A, (R)-N-(2-fluoro-4-(N-(1-(piperidin-4-yl)ethyl)sulfamoyl)phen-yl)-2-methylbenzmaide hydrochloride]", "IC50": 0.058}
{"smiles": "Cc1ccccc1C(=O)Nc1ccc(S(=O)(=O)NC(C)C2CCCN(C(=O)[C@H](C)N)C2)c2ccccc12", "note": "(single isomer, unassigned) [Compound 158C]", "IC50": 0.458}
{"smiles": "Cc1ccccc1C(=O)Nc1ccc(S(=O)(=O)N[C@H](C)C2CCNCC2)c(F)c1Cl", "note": "[Compound 246A, (R)-N-(2-chloro-3-fluoro-4-(N-(1-(piperidin-4-yl)ethyl)sulfamoyl)phenyl)-2-methylbenzamide hydrochloride]", "IC50": 0.079}
{"smiles": "CC(NS(=O)(=O)c1ccc(-c2[nH]nnc2-c2ccccc2)c2ccccc12)C1CCCCC1", "note": "(stereo not shown) [Compound 148, N-(1-cyclohexylethyl)-4-(4-phenyl-1H-1,2,3-triazol-5-yl)naphthalene-1-sulfonamide]", "IC50": 0.613}
{"smiles": "Cc1cc(S(=O)(=O)N[C@H](C)C2CCNCC2)ccc1NC(=O)c1ccc(F)cc1C", "note": "[Compound 258A, (R)-4-fluoro-2-methyl-N-(2-methyl-4-(N-(1-(piperidin-4-yl)ethyl)sulfamoyl)phenyl)benzamide hydrochloride]", "IC50": "> 100"}
{"smiles": "CC(NS(=O)(=O)c1ccc2[nH]c(=O)[nH]c2c1)C1CCCCC1", "note": "(stereo not shown) [Compound 80, N-(1-cyclohexylethyl)-2-oxo-2,3-dihydro-1H-benzo[d]imidazole-5-sulfonamide]", "IC50": "> 10"}
{"smiles": "Cc1cc(S(=O)(=O)NC(C)(C)C2CCN(C)CC2)ccc1NC(=O)c1ccccc1C", "note": "[Compound 291, 2-methyl-N-(2-methyl-4-(N-(2-(1-methylpiperidin-4-yl)propan-2-yl)sulfamoyl)phenyl) benzamide]", "IC50": 0.245}
{"smiles": "Cc1cc(S(=O)(=O)N[C@H](C)C2CCN(C)CC2)c(F)cc1NC(=O)c1ccccc1C", "note": "[Compound 262, (R)-N-(5-fluoro-2-methyl-4-(N-(1-(1-methylpiperidin-4-yl)ethyl)sulfamoyl)phenyl)-2-methylbenzamide]", "IC50": 0.005}
{"smiles": "Cc1ccccc1C(=O)Nc1ccc(S(=O)(=O)NC(C)c2ccccc2N)c2ccccc12", "note": "(stereo not shown) [Compound 124, N-(4-(N-(1-(2-aminophenyl)ethyl)sul-famoyl)naphthalen-1-yl)-2-methylbenzamide]", "IC50": 0.832}
{"smiles": "Cc1ccccc1C(=O)Nc1ccc(S(=O)(=O)NC23CC(C2)C3)c2ccccc12", "note": "[Compound 63, N-(4-(N-(bicyclo[1.1.1]pentan-1-yl)sulfamoyl)naphthalen-1-yl)-2-methylbenzamide]", "IC50": "> 10"}
{"smiles": "Cc1ccccc1C(=O)N(C)c1ccc(S(=O)(=O)N[C@H](C)C2CCNCC2)cc1C", "note": "[Compound 231A, (R)-N,2-dimethyl-N-(2-methyl-4-(N-(1-(piperidin-4-yl)ethyl)sulfamoyl)phenyl)benzamide hydrochloride]", "IC50": 0.279}
{"smiles": "Cc1cc(S(=O)(=O)N[C@H](C)C2CCN(C)CC2)ccc1NC(=O)C1CCCCCC1", "note": "[Compound 274, (R)-N-(2-methyl-4-(N-(1-(1-methylpiperidin-4-yl)ethyl)sulfamoyl)phenyl) cycloheptane-carboxamide]", "IC50": 0.013}
{"smiles": "Cc1cc(S(=O)(=O)N[C@H](C)C2CCNCC2)ccc1NC(=O)c1ccsc1", "note": "[Compound 211A, (R)-N-(2-methyl-4-(N-(1-(piperidin-4-yl)ethyl)sulfamoyl)phenyl)thiophene-3-carboxamide hydrochloride]", "IC50": 0.096}
{"smiles": "CC(NS(=O)(=O)c1cccc(N2CCCCC2C(=O)O)c1)C1CCCCC1", "note": "(stereo not shown) [Compound 153, 1-(3-(N-(1-cyclohexylethyl)sulfam-oyl)phenyl)piperidine-2-carboxylic acid]", "IC50": "> 10"}
{"smiles": "CCCC(=O)N1CCC(NS(=O)(=O)c2ccc(N)cc2)CC1", "note": "[Compound 119, 4-amino-N-(1-butyrylpiperidin-4-yl)benzenesulfonamide]", "IC50": "> 10"}
{"smiles": "CCCC(=O)N1CCC(NS(=O)(=O)c2ccc(Nc3ncnc4ccccc34)cc2)CC1", "note": "[Compound 120, N-(1-butyrylpiperidin-4-yl)-4-(quinazolin-4-ylamino)benzenesulfon-amide]", "IC50": "> 10"}
{"smiles": "Cc1ccccc1C(=O)Nc1ccc(S(=O)(=O)N[C@H](C)C2CCNCC2)cc1Cl", "note": "[Compound 165A, (R)-N-(2-chloro-4-(N-(1-(piperidin-4-yl)ethyl)sulfamoyl)phen-yl)-2-methylbenzamide hydrochloride]", "IC50": 0.012}
{"smiles": "Cc1ccccc1C(=O)Nc1ccc(S(=O)(=O)N[C@@H]2CCN3C(=O)CC[C@@H]3C2)c2ccccc12", "note": "[Compound 47, 2-methyl-N-(4-(N-((7R,8aR)-3-oxooctahydroindolizin-7-yl)sulfamoyl)naphthalen-1-yl)benzamide]", "IC50": 0.023}
{"smiles": "Cc1ccccc1C(=O)Nc1ccc(S(=O)(=O)Nc2ccc3c(c2)N(CCN(C)C)CCO3)c2ccccc12", "note": "[Compound 23, N-(4-(N-(4-(2-(dimethylamino)ethyl)-3,4-dihydro-2H-benzo[b][1,4]oxazin-6-yl)sulfamoyl)naphthalen-1-yl)-2-methylbenzamide]", "IC50": "> 10"}
{"smiles": "CCOC(=O)C(C)(C)C(C)NS(=O)(=O)c1ccc(NC(=O)c2ccccc2C)c(C)c1", "note": "(stereo not shown) [Compound 232, ethyl 2,2-dimethyl-3-(3-methyl-4-(2-methylbenzamido)phenylsulfonamido) butanoate]", "IC50": 0.685}
{"smiles": "CCc1cc(S(=O)(=O)N[C@H](C)C2CCNCC2)ccc1NC(=O)c1ccccc1C", "note": "[Compound 196, (R)-N-(2-ethyl-4-(N-(1-(piperidin-4-yl)ethyl)sulfamoyl)phenyl)-2-methylbenzamide]", "IC50": 0.018}
{"smiles": "Cc1ccccc1C(=O)Nc1ccc(S(=O)(=O)NC(C)C2CCCN(C(=O)[C@H](C)N)C2)c2ccccc12", "note": "(single isomer, unassigned) [Compound 158B]", "IC50": 0.685}
{"smiles": "Cc1ccccc1C(=O)Nc1ccc(S(=O)(=O)Nc2ccc3c(c2)C(N(C)C(=O)CN(C)C)CC3)c2ccccc12", "note": "(stereo not shown) [Compound 98, N-(4-(N-(3-(2-(dimethylamino)-N-methylacetamido)-2,3-dihydro-1H-inden-5-yl)sulfamoyl)naphthalen-1-yl)-2-methylbenzamide]", "IC50": "> 10"}
